Test results reported in PubChem BioAssay AID1963435 (Molecular Pharmacology Branch, DTP, NCI, 2024).

System: PANC-1 complex spheroid growth, percent test/control
Assay: Anticancer human tumor PANC-1 cell line growth inhibition [Asc];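 also: spheroids exposed to agents for 7 days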;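 as to viability, T/C: percent viability relative to DMSO vehicle wells taken as 100%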
Settings: for IC50: curve of first compound; for viability, T/C: stronger effect = lower value
Protocol: Multicellular complex tumor spheroid response to apoptosis pathway targeting inhibitors Alrizomadlin, Pelcitoclax, and Dasminapant in combination with a variety of drugs and investigational agents in selected tumor cell lines
The MDM2 inhibitor alrizomadlin, the Bcl-2/Bcl-xL inhibitor pelcitoclax, and the IAPs inhibitor dasminapant were evaluated both individually and in combination with standard of care and investigational anticancer small molecules within a complex spheroid model of solid tumors. . Complex spheroids include a stromal component modeled by human endothelial cells (HUVEC) and fibroblasts modeled by human mesenchymal stem cells (MSCs). The concentration ranges selected for each drug and investigational agent were based upon clinically achievable concentrations if the clinical Cmax of the agent was known.
Compounds. The drugs and investigational agents: alrizomadlin (APG-115; NSC831270), pelcitoclax (APG-1252; NSC835773), dasminapant (APG-1387;NSC834197), TAK-243 (NSC785004), copanlisib (NSC809693), olaparib (NSC753686), talazoparib (NSC767125), cobimetinib (NSC 768068), eltanexor (KPT-8602, NSC 794443), abemaciclib (NSC 768073), sotorasib (NSC818433), adagrasib (NSC 831453), MRTX-1133 (NSC 836407), Iadademestat (ORY1001, NSC 806812), and RMC-4630 (NSC839698), were obtained from the NCI Developmental Therapeutics Program Chemical Repository. The FDA-approved anticancer drug set is available from the Developmental Therapeutics Program at https://dtp.cancer.gov/organization/dscb/obtaining/available plates.htm. […] The stock solutions were prepared in dimethyl sulfoxide (DMSO, Sigma-Aldrich, St. Louis, MO, cat. D2650) at 800-fold the tested concentration and stored at -70 degrees C prior to their use. All drugs and investigational agents were tested over a range starting from a high concentration at or near the clinical Cmax and decreasing in half-log increments. If the clinical Cmax for an agent had not been determined, the highest concentration tested was 10 microM.
The patient-derived cancer (PDC) cell lines include five colon adenocarcinomas: 186277-243-T-J2-PDC, 616215-338-R-J1-PDC, 439559-082-T-J2-PDC, 463943-066-T-J2-PDC, and 519858-162-T-J1-PDC; three pancreatic carcinomas: 323965-272-R-J2-PDC, 521955-158-R6-J3-PDC, and 521955-158-R2-J5-PDC; two uterine sarcomas: 327498-152-R-J2-PDC and 993429-296-R-J1-PDC; two rhabdomyosarcomas: 755483-174-R-J1-PDC and 772245-204-R-J1-PDC; two soft tissue sarcomas: 126254-015-R-J1-PDC and 494315-158-R-J1-PDC; two malignant fibrous histiocytomas: 317291-083-R-J1-PDC and 596521-263-R-J1-PDC; two breast carcinomas: 171881-019-R-J1-PDC and 885512-296-R-J2-PDC; and one ovarian carcinoma: 6556581-035-R-J-PDC were obtained from the NCI PDMR, (https://pdmr.cancer.gov). The established cell lines HSSY-2 synovial sarcoma (RRID:CVCL 8719), SYO-1 synovial sarcoma (RRID:CVCL_7146), MPNST malignant peripheral neural sheath tumor were obtained from the Sloan Kettering Institute. The following established cell lines were purchased from the American Type Culture Collection (ATCC, Manassas, VA), Sor the received from the NCI repository:, PANC-1 pancreatic carcinoma (CRL-1469, RRID:CVCL_0480), OVCAR-5 ovarian carcinoma (RRID:CVCL_1628), OVCAR-8 ovarian carcinoma (RRID:CVCL_1629), , MCF-7 breast carcinoma (CRL-12584, RRID:CVCL_0031), MDA-MB-231 breast carcinoma (CRL-12532, RRID:CVCL_0062), NCI-H1876 small cell lung carcinoma (CRL-5902, RRID:CVCL_1503), NCI-H510A small cell lung carcinoma (HTB-184, RRID:CVCL_1565), NCI-H1417 (CRL-5869, RRID:CVCL_1469), and NCI-H196 small cell lung carcinoma (CRL-5823, RRID:CVCL_1509). Dr. Peter Houghton (Greehey Children's Cancer Research Institute, University of Texas Health Science Center, San Antonio, TX) provided Rh-18 rhabdomyosarcoma (RRID:CVCL_1659). Pooled donor human umbilical vein endothelial cells (HUVEC, Lonza, cat. CC-2519) and human mesenchymal stem cells (hMSC, Lonza, cat. PT-2501) were purchased from Lonza (Walkersville, MD).
Cell Culture. […]

## NC1CCC(NC2CC2c2ccccc2)CC1 (centres undefined) + CCN1C(C(=O)NC23CCC(C(=O)O)(CC2)CC3)C(c2cccc(Cl)c2F)C2(C(=O)Nc3cc(Cl)ccc32)C12CCCCC2
Second compound 0.00949 µM
  IC50: > 0.1 µM
Second compound 0.03 µM
  IC50: > 0.1 µM
Second compound 0.0949 µM
  IC50: > 0.1 µM
Second compound 0.3 µM
  IC50: > 0.1 µM
Second compound 0.949 µM
  IC50: > 0.1 µM
Second compound 3 µM
  IC50: > 0.1 µM
Second compound 0.00949 µM, first compound 0.000316 µM
  viability, T/C: 97.6%
Second compound 0.00949 µM, first compound 0.001 µM
  viability, T/C: 89%
Second compound 0.00949 µM, first compound 0.00316 µM
  viability, T/C: 97.2%
Second compound 0.00949 µM, first compound 0.01 µM
  viability, T/C: 85.9%
Second compound 0.00949 µM, first compound 0.0316 µM
  viability, T/C: 82%
Second compound 0.00949 µM, first compound 0.1 µM
  viability, T/C: 104%
Second compound 0.03 µM, first compound 0.000316 µM
  viability, T/C: 84.6%
Second compound 0.03 µM, first compound 0.001 µM
  viability, T/C: 90.1%
Second compound 0.03 µM, first compound 0.00316 µM
  viability, T/C: 103%
Second compound 0.03 µM, first compound 0.01 µM
  viability, T/C: 87%
Second compound 0.03 µM, first compound 0.0316 µM
  viability, T/C: 91.2%
Second compound 0.03 µM, first compound 0.1 µM
  viability, T/C: 90.1%
Second compound 0.0949 µM, first compound 0.000316 µM
  viability, T/C: 99.7%
Second compound 0.0949 µM, first compound 0.001 µM
  viability, T/C: 94.7%
Second compound 0.0949 µM, first compound 0.00316 µM
  viability, T/C: 93.5%
Second compound 0.0949 µM, first compound 0.01 µM
  viability, T/C: 95.5%
Second compound 0.0949 µM, first compound 0.0316 µM
  viability, T/C: 97.7%
Second compound 0.0949 µM, first compound 0.1 µM
  viability, T/C: 95.4%
Second compound 0.3 µM, first compound 0.000316 µM
  viability, T/C: 96.7%
Second compound 0.3 µM, first compound 0.001 µM
  viability, T/C: 101%
Second compound 0.3 µM, first compound 0.00316 µM
  viability, T/C: 102%
Second compound 0.3 µM, first compound 0.01 µM
  viability, T/C: 98.2%
Second compound 0.3 µM, first compound 0.0316 µM
  viability, T/C: 102%
Second compound 0.3 µM, first compound 0.1 µM
  viability, T/C: 91%
Second compound 0.949 µM, first compound 0.000316 µM
  viability, T/C: 109%
Second compound 0.949 µM, first compound 0.001 µM
  viability, T/C: 115%
Second compound 0.949 µM, first compound 0.00316 µM
  viability, T/C: 104%
Second compound 0.949 µM, first compound 0.01 µM
  viability, T/C: 107%
Second compound 0.949 µM, first compound 0.0316 µM
  viability, T/C: 97.2%
Second compound 0.949 µM, first compound 0.1 µM
  viability, T/C: 89.2%
Second compound 3 µM, first compound 0.000316 µM
  viability, T/C: 109%
Second compound 3 µM, first compound 0.001 µM
  viability, T/C: 112%
Second compound 3 µM, first compound 0.00316 µM
  viability, T/C: 101%
Second compound 3 µM, first compound 0.01 µM
  viability, T/C: 110%
Second compound 3 µM, first compound 0.0316 µM
  viability, T/C: 95.6%
Second compound 3 µM, first compound 0.1 µM
  viability, T/C: 110%

## C#Cc1c(F)ccc2cc(O)cc(-c3ncc4c(N5CC6CCC(C5)N6)nc(OCC56CCCN5CC(F)C6)nc4c3F)c12 (centres undefined) + Cc1c(S(C)(=O)=O)c(-c2cc(F)cc(N3CCN(c4ccc(NS(=O)(=O)c5ccc(NC(CCN6CCC(C(=O)OCCCP(=O)(O)O)CC6)CSc6ccccc6)c(S(=O)(=O)C(F)(F)F)c5)cc4)CC3)c2)c(-c2ccc(Cl)cc2)n1C(C)C
Second compound 0.0316 µM
  IC50: > 10 µM
Second compound 0.1 µM
  IC50: > 10 µM
Second compound 0.316 µM
  IC50: > 10 µM
Second compound 1 µM
  IC50: > 10 µM
Second compound 3.16 µM
  IC50: > 10 µM
Second compound 10 µM
  IC50: > 10 µM
Second compound 0.0316 µM, first compound 0.0316 µM
  viability, T/C: 86.6%
Second compound 0.0316 µM, first compound 0.1 µM
  viability, T/C: 84%
Second compound 0.0316 µM, first compound 0.316 µM
  viability, T/C: 81.4%
Second compound 0.0316 µM, first compound 1 µM
  viability, T/C: 87.2%
Second compound 0.0316 µM, first compound 3.16 µM
  viability, T/C: 83.5%
Second compound 0.0316 µM, first compound 10 µM
  viability, T/C: 72.6%
Second compound 0.1 µM, first compound 0.0316 µM
  viability, T/C: 84.6%
Second compound 0.1 µM, first compound 0.1 µM
  viability, T/C: 80.2%
Second compound 0.1 µM, first compound 0.316 µM
  viability, T/C: 74.8%
Second compound 0.1 µM, first compound 1 µM
  viability, T/C: 80.9%
Second compound 0.1 µM, first compound 3.16 µM
  viability, T/C: 78%
Second compound 0.1 µM, first compound 10 µM
  viability, T/C: 75.3%
Second compound 0.316 µM, first compound 0.0316 µM
  viability, T/C: 88.7%
Second compound 0.316 µM, first compound 0.1 µM
  viability, T/C: 77.5%
Second compound 0.316 µM, first compound 0.316 µM
  viability, T/C: 76.2%
Second compound 0.316 µM, first compound 1 µM
  viability, T/C: 74%
Second compound 0.316 µM, first compound 3.16 µM
  viability, T/C: 88.2%
Second compound 0.316 µM, first compound 10 µM
  viability, T/C: 69.8%
Second compound 1 µM, first compound 0.0316 µM
  viability, T/C: 80.2%
Second compound 1 µM, first compound 0.1 µM
  viability, T/C: 75.6%
Second compound 1 µM, first compound 0.316 µM
  viability, T/C: 72.6%
Second compound 1 µM, first compound 1 µM
  viability, T/C: 67.4%
Second compound 1 µM, first compound 3.16 µM
  viability, T/C: 73.7%
Second compound 1 µM, first compound 10 µM
  viability, T/C: 55.3%
Second compound 3.16 µM, first compound 0.0316 µM
  viability, T/C: 72.4%
Second compound 3.16 µM, first compound 0.1 µM
  viability, T/C: 62.9%
Second compound 3.16 µM, first compound 0.316 µM
  viability, T/C: 59.9%
Second compound 3.16 µM, first compound 1 µM
  viability, T/C: 60.1%
Second compound 3.16 µM, first compound 3.16 µM
  viability, T/C: 59%
Second compound 3.16 µM, first compound 10 µM
  viability, T/C: 56.8%
Second compound 10 µM, first compound 0.0316 µM
  viability, T/C: 114%
Second compound 10 µM, first compound 0.1 µM
  viability, T/C: 103%
Second compound 10 µM, first compound 0.316 µM
  viability, T/C: 101%
Second compound 10 µM, first compound 1 µM
  viability, T/C: 85.5%
Second compound 10 µM, first compound 3.16 µM
  viability, T/C: 84.9%
Second compound 10 µM, first compound 10 µM
  viability, T/C: 67.9%
